Holding throughout (type): physicochemical
A short description of series [1]: Solubility in methyltertiobutylether on recrystallization. Particulars: solid at 6.3% weight in methyltertiobutylether. An excerpt:
Recrystallization of polymorph A for purification purposes leaded to solubility problems in methyltertiobutylether.

Series [2] can be described thus: Carr Index (compressibility index, flowability) of unmilled product. An excerpt:
After crystallization and before micronization, the Carr Index of B form is lower than 10 (in %). The Carr Index CI is defined as: [formula] where P is the packed bulk density (g cm^−3), L is the loose bulk density (g cm^−3). CI is also know as a compressibility index. A low figure for CI corresponds to a high degree of flowability. The Carr Index way be calculated from Mercury Intrusion Porosimetry or measured by Tap—Tap.

Series [3] is described as follows: Thermodynamic stability of the polymorphs, DSC (Differential Scanning Calorimetry). Particulars: for thermodynamic stability: compared with Polymorph A, monotropic system according to Burger's rule. Here is the method: an endothermal peak around 90-100° C. due to melting of A form,
an exothermal peak corresponding to the transition A→B,
an endothermal peak around 120° C. due to melting of B form,
a very small exothermal peak corresponding to the transition A→B,
an endothermal peak due to melting of B form.
Therefore, the transition A→B is under kinetic control as usual in case of polymorphism. The transition from A to B may also be followed by X-Ray under heating (FIG. 7).
(In general: In DSC, transitions show as peaks or steps in heat flow.)

Regarding `CC1(C)OC(=O)C(OCC2CC2)=C1c1ccc(S(C)(=O)=O)cc1` [3-(cyclopropylmethoxy)-4-(4-methylsulfonyl)phenyl-5,5-dimethylfuranone], the solubility in methyltertiobutylether result in series [1] was “could no longer be solubilised”.
Consider `CC1(C)OC(=O)C(OCC2CC2)=C1c1ccc(S(C)(=O)=O)cc1` [Polymorph A, 3-(cyclopropylmethoxy)-4-[4-(methylsulfonyl)phenyl]-5,5-dimethyl-5H-furan-2-one], for which the “Carr Index” value in series [2] (unmilled product, crystallisation process: Lab scale) lay within 26 to 27%; in series [2] (unmilled product, crystallisation process: Pilot scale), 29 to 33%. The “behaviour when heated (DSC)” value in series [3] (depending on the heating rate (40° C./mn, 2° C./mn)) is on record as “transforms to form B”.
`CC1(C)OC(=O)C(OCC2CC2)=C1c1ccc(S(C)(=O)=O)cc1` [Polymorph B, 3-(cyclopropylmethoxy)-4-[4-(methylsulfonyl)phenyl]-5,5-dimethyl-5H-furan-2-one]: the “Carr Index” value in series [2] (after crystallization and before micronization) is “lower than 10%”; in series [2] (unmilled product, Recrystallisation in MTBE, Lab scale), 2 to 3%; in series [2] (unmilled product, Recrystallisation in MTBE, Pilot scale), 2 to 4%. Besides, the flow characteristics entry in series [2] (compared with Polymorph A) was “better flow characteristics than Polymorph A”. The thermodynamic stability entry in series [3] is listed as “thermodynamically more stable than Polymorph A”; in series [3] (listed as B form) it was “the most stable form”.
